For series [1], the system named is HL-60 promyelocytic leukemia cell line. The experiment in a line: 3H-thymidine incorporation assay, HL-60. In kind it is cell-based. Particulars: HL-60, 48 h incubation, 3H-thymidine pulse 6 h, read-out: IC50, inhibition of cell proliferation, HL-60. The method, then:
(§1) The ability of the compounds to inhibit cancer cell growth was evaluated in promyelocytic leukemia cell line, HL-60, using a ^3H-thymidine incorporation assay. Cells were plated in a 96-well plate at 10-20×10^3 cells/well in RPMI supplemented with 10% fetal bovine serum, 2 mM glutamine, 1% penicillin/streptomycin (complete medium). The caged Garcinia xanthones were added to the cells at increasing concentrations and 0.1% DMSO was added to control cells. Cells were incubated for 48 h and then pulsed with ^3H-thymidine for 6 h. Incorporation of ^3H-thymidine was determined in a scintillation counter (Beckman Coulter Inc., Fullerton, Calif.) after cells were washed and deposited onto glass microfiber filters using a cell harvester M-24 (Brandel, Gaithersburg, Md.). Table 1 provides IC50 values for the natural products gambogic acid and gambogin, forbesione and deoxymorellin.

For the next series, the system named is HT29 (colon). The experiment in a line: Trypan-blue exclusion assay, HT29. The series is classed as cell-based.
The test system of the next series is PC3 (prostate). The series is described as follows: Trypan-blue exclusion assay, PC3. The series is classed as cell-based.
In series [2] the test system is HL-60/ADR cells (multidrug resistant clone, mdr-1 transfected). The experiment in a line: 3H-thymidine incorporation assay, HL-60/ADR. The series is classed as cell-based. The conditions noted are these: 48 h incubation, 3H-thymidine pulse 6 h, read-out: IC50, inhibition of cell proliferation, HL-60/ADR. The protocol:
as §1
The compounds were also evaluated in HL-60/ADR cells, a multidrug resistant clone obtained by transfection of HL-60 cells with mdr-1. (See, A. Batova, L. E. Shao, M. B. Diccianni, A. L. Yu, T. Tanaka, A. Rephaeli, A. Nudelman and J. Yu, Blood, 2002, 100, 3319-24). […] Without being bound to any particular theory, it is believed that the caged Garcinia xanthones are not subject to the mechanism of chemo-resistance resulting from the expression of mdr, characteristic of many relapsed cancers. (See, M. M. Gottesman and I. Pastan, Annu. Rev. Biochem., 1993, 62, 385-427; S. Simon, D. Roy and M. Schindler, PNAS, 1994, 91, 1128-1132 and A. K. Larsen, A. E. Escargeuil and A. Skladanowski, Pharmacol. Ther., 2000, 85, 217-229).

The test system of a further series is M21 (melanoma). The series is described as follows: Trypan-blue exclusion assay, M21. The series is classed as cell-based. The method, then:
(§2) Compounds such as desoxymorellin, gambogic acid, gambogin and 17 were further evaluated in a panel of solid and non-solid tumor cell lines. CEM cells were plated in a 24-well plate in complete media at 50×10^3 cells/well. Cells were treated with gambogin at concentrations of 0.25, 0.5, 1.0 μM or with 0.1% DMSO (control cells). Cells were incubated for 4 days and then the number of viable cells was determined after the addition of trypan-blue dye by counting the cells which exclude trypan-blue in a hemocytometer. Data for inhibition of cell proliferation is provided in.

The subject of the next series is A549 (lung). The experiment in a line: Trypan-blue exclusion assay, A549. The series is classed as cell-based.
The next series concerns MCF-7 (breast). The series is described as follows: Trypan-blue exclusion assay, MCF-7. In kind it is cell-based.
Series [3] deals with CEM T-cell acute lymphoblastic leukemia cell line. The series is described as follows: Trypan-blue exclusion assay, CEM. The series is classed as cell-based. The conditions noted are these: Homo sapiens, read-out: IC50 (μM), CEM leukemia. The method, then: as §2
In another series the test system is HUVE cells. The experiment in a line: Apoptosis assay (Cell Death Detection ELISA PLUS). In kind it is cell-based, human. The protocol: The compounds were dissolved in DMSO and further diluted with Endothelial Cell Growth Medium (PromoCell, Heidelberg, Germany) to obtain final concentrations as indicated. HUVE cells were seeded into each well of a 96-well cell culture plate at 10000 cells per well and incubated at 37° C. for 10 h with the indicated concentrations of each compound. The final volume was 100 μL per well. Control samples were incubated with the solvent alone. Each sample was repeated three times. The proapoptotic effect was detected by using the Cell Death Detection ELISA^PLUS kit (Roche Diagnostics GmbH, Mannheim, Germany) according to the manufactor's instructions. The kit constitutes a photometric enzyme-immunoassay for the qualitative and quantitative in vitro determination of cytoplasmic histone-associated-DNA-fragments (mono- and oligo-nucleosomes) after induced cell death. Due to the working procedure the kind of cell death (apoptosis or necrosis) […]. The absorption values A (A405nm-A490nm) measured give a quantitative indication of the induced amount of apoptosis/necrosis. The higher the absorption A, the higher the induction of apoptosis/necrosis at the corresponding concentrations of the compounds.
On the technique in general: An ELISA detects its analyte on a solid surface through an enzyme-linked reagent.

A short description of series [4]: Animal study, body weight/toxicity in SCID mice injected with primary human leukemia cells. In kind it is in vivo. Particulars: IV injections. The method, then:
SCID mice were injected with primary human leukemia cells. Seven days following injection of leukemia cells, mice were given IV injections of gambogic acid, gambogic acid analog (17), or PBS (control). Each treatment group contained 3 mice which were monitored for body weight upon each injection.

Series [5] is described as follows: WST assay, cell viability. In kind it is cell-based. Particulars: human, HUVE (human umbilical vein endothelial) cells, 24 h incubation, read-out: IC50, cytotoxicity (WST assay). The method, then:
Cell viability was determined using the WST assay in HUVE (human umbilical vein endothelial) cells that measures metabolic activity of cells alive. Compound 17 was dissolved in DMSO and further diluted with Endothelial Cell Growth Medium (PromoCell, Heidelberg, Germany) to obtain a final concentration as indicated. HUVE cells (PromoCell, Heidelberg, Germany) were seeded into each well of a 96-well cell culture plate at 7000 cells per well and incubated at 37° C. for 24 h with the indicated concentrations of each compound. The final volume was 100 μL per well. Control samples were incubated with the solvent alone. Each experiment was repeated in triplicate. Afterwards the WST-1 reagent was added to the cells at 10 μL per well and the cells further incubated at 37° C. for additional 3 h. Then the cell culture plate was agitated thoroughly for 1 minute on a shaker at 200 U/min. The absorbance of each sample was measured using a microplate reader at 440 nm. The reference wavelength was 690 nm.

Series [6] relates to HEL (Human Embryonic Lung fibroplasts). The conditions noted are these: cited from earlier work.
For series [7], the system named is (HeLa) Henrietta Lacks cervical cancer cells. Particulars: cited from earlier work.

SMILES strings stand for the structures. Where two headings read alike, the source gives them in different places.

On to `CC(C)=CCc1c2c(c(O)c3c1O[C@@]14C(=C[C@H]5CC1C(C)(C)O[C@]4(CC=C(C)C)C5=O)C3=O)C=CC(C)(C)O2` [desoxymorellin], for which the IC50 stood at 1000 nM in [1]; 1.2 µM in the series with HT29 (colon) (HT29); 1.2 µM with PC3 (prostate) (PC3); 1100 nM in [2]; 1.6 µM in the series on M21 (melanoma); 2.1 µM in the series on A549 (lung). The molecule also came in with an IC50 in the series on MCF-7 (breast) (MCF-7) of 0.9 µM.
`CC(C)=CCc1c(O)cc(O)c2c1O[C@]13C(=C[C@@H]4C[C@H]1C(C)(C)O[C@@]3(CC=C(C)C)C4=O)C2=O` [Forbesione]: the IC50 in [1] amounted to 2200 nM; in [2] it was 2000 nM.
Turning to `CC(C)=CCCC1(C)C=Cc2c(O)c3c(c(CC=C(C)C)c2O1)O[C@]12C(=CC4C[C@H]1C(C)(C)OC2(CC=C(C)C)C4=O)C3=O` (stereo partly drawn) [gambogin], the IC50 in [1] (Homo sapiens) was found to be 800 nM; in the series on HT29 (colon) (Homo sapiens, HT-29) it was 1 µM; with PC3 (prostate) (Homo sapiens, PC-3), 1.1 µM; in [3] (CEM-4, 96 h), 0.35 µM; in series [2] (Homo sapiens, HL60/ADR), 1100 nM; with M21 (melanoma) (Homo sapiens), 1 µM. For the same molecule, the IC50 was 1.8 µM in the series on A549 (lung) (Homo sapiens) and 1.1 µM with MCF-7 (breast) (Homo sapiens, MCF7).
Consider `CC(C)=CCC12OC(C)(C)C3CC(C=C4C(=O)c5ccccc5OC431)C2=O` (stereo not drawn) [Compound 17], for which the “subset of cells with necrosis” value in the series on HUVE cells (HUVE cells, concentrations >3 μM, 10 h) is roughly 10%. In addition, the cell necrosis result in the series on HUVE cells (HUVE cells, concentrations lower than 1.5 μM, 10 h) is “not detected”. Further, in the series on HUVE cells (after 10 h, dose-dependent), the “HUVE cells undergoing apoptosis” value is greater than 90%. The IC50 in [1] (Homo sapiens) was 1500 nM; in the series on HT29 (colon) (Homo sapiens, HT-29), 3.1 µM; in [3] (96 h, CEM, 4 days incubation) it was 0.3 µM; in series [2] (Homo sapiens, HL60/ADR) it was 1400 nM; in the series on M21 (melanoma) (Homo sapiens), 2.2 µM; with A549 (lung) (Homo sapiens) it was greater than 4 µM. Also, the “toxicity (body weight) compared to PBS control” value in [4] is listed as “no significant toxicity”. For the same molecule, the IC50 at 24 h in series [5] was determined as 1380 nM.
Take `CC(C)=CCc1c2c(c(O)c3c1O[C@]14C(=C[C@@H]5C[C@H]1C(C)(C)O[C@@]4(C/C=C(/C)C=O)C5=O)C3=O)C=CC(C)(C)O2` [morellin]: the “cytotoxicity against HEL” value in series [6] is on record as “good cytotoxicity”. In [7], the “cytotoxicity against HeLa” value is on record as “good cytotoxicity”.
Take `CC(C)=CCC[C@]1(C)C=Cc2c(O)c3c(c(CC=C(C)C)c2O1)O[C@]12C(=C[C@@H]4C[C@H]1C(C)(C)O[C@@]2(C/C=C(/C)C(=O)O)C4=O)C3=O` [gambogic acid]: the IC50 was 300 nM in [1] (Homo sapiens); 0.7 µM in the series with HT29 (colon) (Homo sapiens, HT-29); 0.4 µM in the series with PC3 (prostate) (Homo sapiens, PC-3); 0.15 µM in series [3] (96 h, CEM, 4 days incubation); 500 nM in series [2] (Homo sapiens, HL60/ADR); 1.2 µM in the series with M21 (melanoma) (Homo sapiens). For the same molecule, the IC50 worked out at 1.8 µM in the series on A549 (lung) (Homo sapiens) and 0.4 µM with MCF-7 (breast) (Homo sapiens, MCF7). Further, in series [4], the “toxicity (body weight) compared to PBS control” value is “some toxicity”.

Values taken from patent US20100137421A1, “SMALL MOLECULE THERAPEUTICS, SYNTHESIS OF ANALOGUES AND DERIVATIVES AND METHODS OF USE” (priority 2006, published 2010).
